According to patent US12441762B2, “Hepatitis c virus NS3/4A protease inhibitors” (priority 2019, dated 2025):

What was measured:
[1] = biological target: T1, HCV NS3/4A protease D168A variant (Hepatitis C virus genotype 1a, UniProt P27958, C1185S/D1194A); assay: biochemical; format: biochemical
T1 construct: His-tag (cleaved yes); made in house; host or cells: Escherichia coli BL21(DE3), PET28a vector
Procedure: (§1) The HCV GT1a NS3/4A protease gene described in the Bristol Myers Squibb patent was synthesized by GenScript and cloned into a PET28a expression vector. Cys159 was mutated to a serine residue to prevent disulfide bond formation and facilitate crystallization. The D168A gene was engineered using the site-directed mutagenesis protocol from Stratagene. Protein expression and purification were carried out as previously described.
(§2) Km constants for GT1 and D168A protease were previously determined. […] Inner filter effect corrections were applied to the initial velocities (Vo) at each substrate concentration. Vo versus substrate concentration graphs were globally fit to the Michaelis-Menten equation to obtain the Km value.
(§3) For each assay, 2 nM of NS3/4A protease (GT1a and D168A) was pre-incubated at room temperature for 1 h with increasing concentration of inhibitors in assay buffer (50 mM Tris, 5% glycerol, 10 mM DTT, 0.6 mM LDAO, and 4% dimethyl sulfoxide, pH 7.5). Inhibition assays were performed in non-binding surface 96-well black half-area plates (Corning) in a reaction volume of 60 μL. […] Three independent data sets were collected for each inhibitor with each protease construct.

[2] = biological target: T2, wild-type HCV NS3/4A protease (GT1a) (Hepatitis C virus genotype 1a, UniProt P27958, C1185S); assay: biochemical; format: biochemical
T2 construct: His-tag (cleaved yes); made in house; host or cells: Escherichia coli BL21(DE3), PET28a vector
Procedure: as §1, §2, §3

T1 sequence (P27958 1027-1208 C1185S/D1194A): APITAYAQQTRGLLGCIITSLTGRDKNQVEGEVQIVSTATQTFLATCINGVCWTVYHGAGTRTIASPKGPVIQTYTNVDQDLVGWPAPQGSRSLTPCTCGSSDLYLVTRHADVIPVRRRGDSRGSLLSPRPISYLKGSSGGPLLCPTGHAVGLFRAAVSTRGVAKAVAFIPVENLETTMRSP
T2 sequence (P27958 1027-1208 C1185S): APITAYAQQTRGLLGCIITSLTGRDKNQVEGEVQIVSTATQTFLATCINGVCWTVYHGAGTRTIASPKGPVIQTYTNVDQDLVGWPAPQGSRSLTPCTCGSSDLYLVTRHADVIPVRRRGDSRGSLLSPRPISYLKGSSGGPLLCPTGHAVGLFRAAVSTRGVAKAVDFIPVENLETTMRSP

SMILES	Ki [1]	Ki [2]
COc1ccc2nc(C)c(O[C@@H]3C[C@H]4C(=O)N[C@]5(C(=O)NS(=O)(=O)C6(C)CC6)C[C@H]5/C=C\CCCCC[C@H](NC(=O)OC(C)(C)C(F)(F)F)C(=O)N4C3)nc2c1 [AJ-71, 1,1,1-Trifluoro-2-methylpropan-2-yl ((2R,6S,13aS,14aR,16aS,Z)-2-((7-methoxy-3-methylquinoxalin-2-yl)oxy)-14a-(((1-methylcyclopropyl)sulfonyl)carbamoyl)-5,16-dioxo-1,2,3,5,6,7,8,9,10,11,13a,14,14a,15,16,16a-hexadecahydrocyclopropa[e]pyrrolo[1,2-a][1,4]diazacyclopentadecin-6-yl)carbamate]	39 ± 2.9 nM	2.56 ± 0.44 nM
COc1ccc2nc(C(F)(F)F)c(O[C@@H]3C[C@H]4C(=O)N[C@]5(C(=O)NS(=O)(=O)C6(C)CC6)C[C@H]5/C=C\CCCCC[C@H](NC(=O)OC5CCC5)C(=O)N4C3)nc2c1 [NR01-95, Cyclobutyl ((2R,6S,13aS,14aR,16aS,Z)-2-((7-methoxy-3-(trifluoromethyl)quinoxalin-2-yl)oxy)-14a-(((1-methylcyclopropyl)sulfonyl)carbamoyl)-5,16-dioxo-1,2,3,5,6,7,8,9,10,11,13a,14,14a,15,16,16a-hexadecahydrocyclopropa[e]pyrrolo[1,2-a][1,4]diazacyclopentadecin-6-yl)carbamate]	29.5 ± 1.8 nM	8.53 ± 0.87 nM
COc1ccc2nc(C)c(O[C@@H]3C[C@H]4C(=O)N[C@]5(C(=O)NS(=O)(=O)C6(C)CC6)C[C@H]5/C=C\CCCCC[C@H](NC(=O)O[C@@H](C)C(C)C)C(=O)N4C3)nc2c1 [NR01-99, (S)-3-Methylbutan-2-yl ((2R,6S,13aS,14aR,16aS,Z)-2-((7-methoxy-3-methylquinoxalin-2-yl)oxy)-14a-(((1-methylcyclopropyl)sulfonyl)carbamoyl)-5,16-dioxo-1,2,3,5,6,7,8,9,10,11,13a,14,14a,15,16,16a-hexadecahydrocyclopropa[e]pyrrolo[1,2-a][1,4]diazacyclopentadecin-6-yl)carbamate]	21.7 ± 2.3 nM	1.91 ± 0.3 nM
COc1ccc2nc(C)c(O[C@@H]3C[C@H]4C(=O)N[C@]5(C(=O)NS(=O)(=O)C6(C)CC6)C[C@H]5/C=C\CCCCC[C@H](NC(=O)OCC5(C)CC5)C(=O)N4C3)nc2c1 [NR01-115, (1-Methylcyclopropyl)methyl ((2R,6S,13aS,14aR,16aS,Z)-2-((7-methoxy-3-methylquinoxalin-2-yl)oxy)-14a-(((1-methylcyclopropyl)sulfonyl)carbamoyl)-5,16-dioxo-1,2,3,5,6,7,8,9,10,11,13a,14,14a,15,16,16a-hexadecahydrocyclopropa[e]pyrrolo[1,2-a][1,4]diazacyclopentadecin-6-yl)carbamate]	21.6 ± 1.7 nM	0.65 ± 0.2 nM
COc1ccc2nc(C(F)(F)F)c(O[C@@H]3C[C@H]4C(=O)N[C@]5(C(=O)NS(=O)(=O)C6(C)CC6)C[C@H]5/C=C\CCCCC[C@H](NC(=O)OCC5(C)CC5)C(=O)N4C3)nc2c1 [NR01-117, (1-Methylcyclopropyl)methyl ((2R,6S,13aS,14aR,16aS,Z)-2-((7-methoxy-3-(trifluoromethyl)quinoxalin-2-yl)oxy)-14a-(((1-methylcyclopropyl)sulfonyl)carbamoyl)-5,16-dioxo-1,2,3,5,6,7,8,9,10,11,13a,14,14a,15,16,16a-hexadecahydrocyclopropa[e]pyrrolo[1,2-a][1,4]diazacyclopentadecin-6-yl)carbamate]	18.6 ± 2 nM	2.89 ± 0.19 nM
COc1ccc2nc(C)c(O[C@@H]3C[C@H]4C(=O)N[C@]5(C(=O)NS(=O)(=O)C6(C)CC6)C[C@H]5/C=C\CCCCC[C@H](NC(=O)O[C@H](C)C(C)C)C(=O)N4C3)nc2c1 [NR01-119, (R)-3-Methylbutan-2-yl ((2R,6S,13aS,14aR,16aS,Z)-2-((7-methoxy-3-methylquinoxalin-2-yl)oxy)-14a-(((1-methylcyclopropyl)sulfonyl)carbamoyl)-5,16-dioxo-1,2,3,5,6,7,8,9,10,11,13a,14,14a,15,16,16a-hexadecahydrocyclopropa[e]pyrrolo[1,2-a][1,4]diazacyclopentadecin-6-yl)carbamate]	23.9 ± 3.5 nM	1.52 ± 0.02 nM
